Results as given in patent publication US6750244B2, “Compounds active at a novel site on receptor-operated calcium channels useful for treatment of neurological disorders and diseases” (NPS Pharmaceuticals, Inc., priority 1993, dated 2004).

Tests used:
audiogenic seizures = assay: animal or person; type: in vivo, DBA/2 mice; conditions: mouse, in vivo
Protocol: The first two models used DBA/2 mice which are prone to audiogenic seizures. […] The test substances were administered 15-30 min before the convulsant stimulus.

NMDA receptor = assay: Inhibition of NMDA/glycine-induced increases in intracellular calcium in cultured rat cerebellar granule cells (RCGC); type: cell-based; conditions: read-out: IC50 against NMDA receptor-mediated increases in [Ca2+]i in cerebellar granule cells
induction of LTP = tested on: induction of LTP; parameters: species or system rat; conditions: slices superfused 30-60 min
thermal nociception [1] = type: in vivo, rats; conditions: 3-30 nmol
Protocol: In these experiments, a 52° C. hot plate was used as the nociceptive stimulus.

thermal nociception [2] = type: in vivo, rats; conditions: 3-30 nmol; remark: listed apart in the source
Protocol: In this standard assay, the thermal nociceptive stimulus was 52° C. warm water with the latency to tail flick or withdrawal taken as the endpoint.

learning = assay: T maze learning test; conditions: i.p. 15 min before testing
Excerpt: In this test, rats were trained to alternate turning in a T maze for a food reward.

[3] = tested on: formalin-induced flinching; type: in vivo, Sprague-Dawley rats; conditions: 1-30 nmol
focal cerebral ischemia = assay: Middle cerebral artery occlusion, permanent, surgical ligation; type: in vivo, rat; conditions: maximally effective dose 10 mg/kg; 24 hours
Protocol: In the first study using this stroke model, one cerebral artery was permanently occluded by surgical ligation. The test compounds were administered 30 minutes after the occlusion by a single intraperitoneal (i.p.) injection. During the course of these experiments, the core body temperature of the animals was maintained at 37° C. to prevent any hypothermic reaction. Brains were assessed histologically for neuronal cell loss 24 hours later. Infarct volumes were calculated using the area of histological pallor from 10 slides and integrating the distance between each successive section.

Compound: C[C@]12N[C@H](Cc3ccccc31)c1ccccc12 [MK-801, reference compound]
- EC50 in the audiogenic seizure model (audiogenic seizures): 0.02 mg/kg
- induction of LTP (p<0.05) (induction of LTP): significantly blocked
- antinociceptive effect, hot plate (thermal nociception [1]): ineffective
- analgesic effect, tail flick (52° C. warm water) (thermal nociception [2]): ineffective
- ability to make the correct choices in the T maze (learning): progressively decreased the number of correct choices
- protection against neuronal cell loss (focal cerebral ischemia): approximately 15%
